The IC50 is the point on the concentration scale where inhibition reaches its midpoint.

The results in this text go back to US20260207602A1, “EGFR INHIBITORS” (Blueprint Medicines Corporation, priority 2022, published 2026).

In one experiment the target is T1, EGFR L858R (Homo sapiens, UniProt P00533, L858R).
T1 construct: purchased SignalChem E10-122BG
The experiment is described as follows: Biochemical EGFR inhibition assay (Caliper mobility shift), EGFR L858R. The conditions noted are these: biochemical Caliper mobility shift assay, EGFR L858R enzyme; read-out: Enz EGFR L858R IC50. The essentials:
(§1)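 Kinase activity measured as phosphorylation of 2.5 µM 5-FAM-labelled peptide substrate in 100 mM HEPES pH 7.5, 10 mM MgCl2, 0.015% Brij-35, 1 mM DTT, 1.0% DMSO, at 1.0 mM ATP or ATP Km. Run at 25 °C to 10–20% conversion, stopped with EDTA; product resolved by mobility shift, apparent IC50 from percent activity vs log concentration.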

A further experiment has as its target T2, EGFR (d746-750) (Homo sapiens, UniProt P00533, DEL746-750).
T2 construct: purchased SignalChem E10-122JG
The experiment is described as follows: Biochemical EGFR inhibition assay (Caliper mobility shift), EGFR (d746-750). The conditions noted are these: biochemical Caliper mobility shift assay, EGFR Exon 19-del enzyme; read-out: Enz EGFR Exon 19-del IC50. In outline: as §1

Experiment [1] has as its target intracellular phosphorylation of EGFR (Tyr1068) in PC-9 cells (Homo sapiens, UniProt P00533, DEL746-750). The experiment is described as follows: PC-9 pEGFR AlphaLISA assay. It counts as cell-based. As to conditions: 4 hours incubation, read-out: Phos EGFR PC9 IC50. In outline: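 PC-9 cells (EGFR del746-750) in phenol-free DMEM/10% FBS, adhered overnight, then exposed to 10-point 4-fold compound dilutions for 4 h at 37 °C. Lysates assayed for pEGFR Tyr1068 by AlphaLISA SureFire Ultra; IC50 from percent pEGFR inhibition vs log concentration.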

intracellular phosphorylation of EGFR (Tyr1068) in PC-9 cells, sequence (P00533 with tags, fused parts or gaps DEL746-750): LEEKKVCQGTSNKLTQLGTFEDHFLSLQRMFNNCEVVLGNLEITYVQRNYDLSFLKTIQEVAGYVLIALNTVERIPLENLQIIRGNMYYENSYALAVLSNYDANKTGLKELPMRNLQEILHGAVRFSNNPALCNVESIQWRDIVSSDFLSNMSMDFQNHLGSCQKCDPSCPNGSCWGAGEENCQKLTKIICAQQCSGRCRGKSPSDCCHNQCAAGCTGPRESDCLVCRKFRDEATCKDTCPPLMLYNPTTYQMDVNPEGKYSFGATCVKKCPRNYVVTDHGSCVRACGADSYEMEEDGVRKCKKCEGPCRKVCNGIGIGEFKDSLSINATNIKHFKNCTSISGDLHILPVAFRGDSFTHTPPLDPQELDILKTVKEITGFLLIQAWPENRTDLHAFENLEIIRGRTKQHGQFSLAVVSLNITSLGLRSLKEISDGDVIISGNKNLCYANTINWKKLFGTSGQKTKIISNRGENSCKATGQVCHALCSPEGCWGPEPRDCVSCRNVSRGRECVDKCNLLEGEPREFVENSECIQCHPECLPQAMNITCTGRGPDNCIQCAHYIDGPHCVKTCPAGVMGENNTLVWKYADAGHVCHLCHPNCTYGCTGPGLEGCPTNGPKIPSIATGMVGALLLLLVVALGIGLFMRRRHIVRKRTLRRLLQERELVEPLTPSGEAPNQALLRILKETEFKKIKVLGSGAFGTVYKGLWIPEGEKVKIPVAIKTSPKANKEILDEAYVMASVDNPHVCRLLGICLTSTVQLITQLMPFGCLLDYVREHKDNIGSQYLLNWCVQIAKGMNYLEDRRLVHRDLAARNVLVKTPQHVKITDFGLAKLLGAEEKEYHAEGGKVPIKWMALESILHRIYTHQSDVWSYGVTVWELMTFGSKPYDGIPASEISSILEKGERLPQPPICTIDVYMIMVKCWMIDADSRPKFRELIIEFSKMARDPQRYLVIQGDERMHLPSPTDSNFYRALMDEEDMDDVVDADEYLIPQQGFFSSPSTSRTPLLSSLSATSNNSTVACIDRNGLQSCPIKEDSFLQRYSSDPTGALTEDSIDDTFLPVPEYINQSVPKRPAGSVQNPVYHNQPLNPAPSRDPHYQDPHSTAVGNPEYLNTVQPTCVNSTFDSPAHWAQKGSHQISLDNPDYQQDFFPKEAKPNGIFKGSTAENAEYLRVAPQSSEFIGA
T1 sequence (P00533 25-1210 L858R): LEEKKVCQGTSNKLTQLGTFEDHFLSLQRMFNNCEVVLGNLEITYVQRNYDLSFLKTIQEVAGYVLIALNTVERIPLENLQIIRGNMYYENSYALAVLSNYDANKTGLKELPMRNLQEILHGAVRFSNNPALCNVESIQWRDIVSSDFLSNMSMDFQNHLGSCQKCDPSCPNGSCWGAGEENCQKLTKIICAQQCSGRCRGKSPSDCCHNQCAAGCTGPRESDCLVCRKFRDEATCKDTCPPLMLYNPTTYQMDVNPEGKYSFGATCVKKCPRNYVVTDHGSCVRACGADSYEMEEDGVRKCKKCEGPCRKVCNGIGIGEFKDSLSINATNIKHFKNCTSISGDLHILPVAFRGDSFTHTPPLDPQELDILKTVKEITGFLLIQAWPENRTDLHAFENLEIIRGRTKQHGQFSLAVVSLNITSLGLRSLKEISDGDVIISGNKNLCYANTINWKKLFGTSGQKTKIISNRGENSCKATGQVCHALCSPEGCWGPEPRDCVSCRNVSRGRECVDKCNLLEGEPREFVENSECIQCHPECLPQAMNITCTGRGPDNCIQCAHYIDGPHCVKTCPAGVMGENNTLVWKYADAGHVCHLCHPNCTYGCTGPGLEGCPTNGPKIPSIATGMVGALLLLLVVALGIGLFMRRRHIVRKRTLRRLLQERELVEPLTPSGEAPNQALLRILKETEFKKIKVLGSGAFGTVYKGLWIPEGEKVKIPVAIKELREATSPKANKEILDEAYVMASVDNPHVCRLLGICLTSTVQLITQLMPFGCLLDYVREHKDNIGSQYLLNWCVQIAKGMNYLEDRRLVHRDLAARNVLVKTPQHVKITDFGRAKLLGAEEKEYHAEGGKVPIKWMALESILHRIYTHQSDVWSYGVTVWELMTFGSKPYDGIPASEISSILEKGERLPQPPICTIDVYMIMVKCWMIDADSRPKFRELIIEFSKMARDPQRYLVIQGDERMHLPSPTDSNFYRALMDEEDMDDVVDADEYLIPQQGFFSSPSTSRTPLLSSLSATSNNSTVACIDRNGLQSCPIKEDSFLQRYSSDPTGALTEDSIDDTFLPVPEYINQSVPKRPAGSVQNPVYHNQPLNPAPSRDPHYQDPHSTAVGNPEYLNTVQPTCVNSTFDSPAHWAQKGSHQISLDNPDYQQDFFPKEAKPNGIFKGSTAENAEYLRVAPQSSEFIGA
T2 sequence (P00533 with tags, fused parts or gaps DEL746-750 limits assumed): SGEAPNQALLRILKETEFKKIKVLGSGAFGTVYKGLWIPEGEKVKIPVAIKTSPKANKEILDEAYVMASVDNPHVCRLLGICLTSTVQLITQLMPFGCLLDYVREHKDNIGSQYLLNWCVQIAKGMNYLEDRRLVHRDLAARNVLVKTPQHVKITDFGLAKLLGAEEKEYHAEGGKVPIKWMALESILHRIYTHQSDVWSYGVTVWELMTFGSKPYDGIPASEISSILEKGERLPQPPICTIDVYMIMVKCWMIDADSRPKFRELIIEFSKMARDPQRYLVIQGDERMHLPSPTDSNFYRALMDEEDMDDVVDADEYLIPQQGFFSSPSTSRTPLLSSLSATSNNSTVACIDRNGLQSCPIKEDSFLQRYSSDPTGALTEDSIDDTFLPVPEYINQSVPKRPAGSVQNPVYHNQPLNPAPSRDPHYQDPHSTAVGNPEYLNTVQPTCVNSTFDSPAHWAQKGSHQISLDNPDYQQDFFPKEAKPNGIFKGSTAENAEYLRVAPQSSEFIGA

Regarding `COc1cc2ncnc(Nc3ccc4ncsc4c3)c2cc1N[C@H]1CCN(C)C[C@@H]1F` [Example 393, N4-(benzo[d]thiazol-6-yl)-N6-((3S,4S)-3-fluoro-1-methylpiperidin-4-yl)-7-methoxyquinazoline-4,6-diamine], the IC50 (at EGFR L858R; at EGFR (d746-750); in experiment [1]) was no more than 0.01 µM throughout.

For the compound `Cn1cc(-c2cc(OC3CC3)c3c(Nc4ccc5ncsc5c4F)ncnc3c2)cn1` [Example 76, N-(5-cyclopropoxy-7-(1-methyl-1H-pyrazol-4-yl)quinazolin-4-yl)-7-fluorobenzo[d]thiazol-6-amine], the half-maximal inhibitory concentration (IC50) is no more than 0.01 µM at EGFR L858R, no more than 0.01 µM on EGFR (d746-750) and 0.0101 to 0.05 µM in experiment [1].

For the compound `COc1nn(C)cc1-c1cc(O[C@H]2CN(C)C[C@@H]2F)c2c(Nc3ccc4ncsc4c3)ncnc2c1` (single isomer, unassigned) [Example 377], the IC50 (on EGFR L858R; at EGFR (d746-750); in experiment [1]) was 0.0101 to 0.05 µM each time.

With `CN(C)[C@H]1CC[C@@H]1Oc1cc(-c2cnn(C)c2)cc2ncnc(Nc3ccc4ncsc4c3)c12` (single isomer, unassigned) [Example 154], the IC50 (at EGFR L858R; at EGFR (d746-750); in experiment [1]) was no more than 0.01 µM in each case.

With `COc1cn(C)nc1-c1cc(O[C@H](C)C2COC2)c2c(Nc3ccc4ncsc4c3)ncnc2c1` (single isomer, unassigned) [Example 120], the IC50 (at EGFR L858R; at EGFR (d746-750); in experiment [1]) was no more than 0.01 µM throughout.

Take `COc1nn(C)cc1-c1cc(O[C@@H]2CCN(C)C[C@H]2F)c2c(Nc3ccc4ncsc4c3)ncnc2c1` (single isomer, unassigned) [Example 358]: the half-maximal inhibitory concentration (IC50) (on EGFR L858R; on EGFR (d746-750); in experiment [1]) was no more than 0.01 µM throughout.

For `Cn1cc(-c2cc(OCCN3CCC3)c3c(Nc4ccc5ncsc5c4)ncnc3c2)cn1` [Example 409, N-(5-(2-(azetidin-1-yl)ethoxy)-7-(1-methyl-1H-pyrazol-4-yl)quinazolin-4-yl)benzo[d]thiazol-6-amine], the results for the IC50 (at EGFR L858R; on EGFR (d746-750); in experiment [1]) were 0.0101 to 0.05 µM, no more than 0.01 µM and 0.0101 to 0.05 µM, respectively.

For the compound `C[C@H](CN(C)C)Oc1cc(N2CC3CC(C2)O3)cc2ncnc(Nc3ccc4ncsc4c3)c12` [Example 177, N-(7-(6-oxa-3-azabicyclo[3.1.1]heptan-3-yl)-5-(((R)-1-(dimethylamino)propan-2-yl)oxy)quinazolin-4-yl)benzo[d]thiazol-6-amine], the IC50 (at EGFR L858R; on EGFR (d746-750); in experiment [1]) was no more than 0.01 µM throughout.

Consider `C[C@@H](Oc1cc(-c2cnn(C(C)(C)CO)c2)cc2ncnc(Nc3ccc4ncsc4c3)c12)C1COC1` (single isomer, unassigned) [Example 291], for which the IC50 (on EGFR L858R; on EGFR (d746-750); in experiment [1]) was no more than 0.01 µM throughout.

For `COc1nn(C)cc1-c1cc(O[C@H]2CN(C)C[C@@H]2F)c2c(Nc3ccc4ncsc4c3)ncnc2c1` (single isomer, unassigned) [Example 378], the IC50 (on EGFR L858R; on EGFR (d746-750); in experiment [1]) was no more than 0.01 µM each time.

Consider `C[C@@H](O)[C@@H](C)Oc1cc(-c2cnn(C)c2)cc2ncnc(Nc3ccc4ncsc4c3)c12` [Example 184, (2R,3R)-3-((4-(benzo[d]thiazol-6-ylamino)-7-(1-methyl-1H-pyrazol-4-yl)quinazolin-5-yl)oxy)butan-2-ol], for which the IC50 (at EGFR L858R; on EGFR (d746-750); in experiment [1]) was no more than 0.01 µM throughout.

For the compound `COc1cc(-c2cnn(C)c2)cc2ncnc(Nc3ccc4ncsc4c3F)c12` [Example 3, 7-fluoro-N-(5-methoxy-7-(1-methyl-1H-pyrazol-4-yl)quinazolin-4-yl)benzo[d]thiazol-6-amine], the IC50 was no more than 0.01 µM at EGFR L858R, no more than 0.01 µM at EGFR (d746-750) and 0.0101 to 0.05 µM in experiment [1].

With `COc1nn(C)cc1-c1cc(O[C@H]2CCN(C)C2=O)c2c(Nc3ccc4ncsc4c3)ncnc2c1` (single isomer, unassigned) [Example 74], the IC50 is no more than 0.01 µM on EGFR L858R, no more than 0.01 µM at EGFR (d746-750) and 0.0101 to 0.05 µM in experiment [1].

As to `COc1nn(C)cc1-c1cc(O[C@H]2CCN(C)C2=O)c2c(Nc3ccc4ncsc4c3)ncnc2c1` (single isomer, unassigned) [Example 75], the IC50 (at EGFR L858R; at EGFR (d746-750); in experiment [1]) was no more than 0.01 µM each time.

For `CN1CCC[C@H](Oc2cc(-c3cnn(C)c3)cc3ncnc(Nc4ccc5ncsc5c4F)c23)C1` [Example 69, (S)-7-fluoro-N-(7-(1-methyl-1H-pyrazol-4-yl)-5-((1-methylpiperidin-3-yl)oxy)quinazolin-4-yl)benzo[d]thiazol-6-amine], the IC50 (at EGFR L858R; on EGFR (d746-750); in experiment [1]) was no more than 0.01 µM in each case.

Consider `CN(C)C1CCC1Oc1cc(-c2cnn(C)c2)cc2ncnc(Nc3ccc4ncsc4c3)c12` [Example 153, N-(5-((1S,2S)-2-(dimethylamino)cyclobutoxy)-7-(1-methyl-1H-pyrazol-4-yl)quinazolin-4-yl)benzo[d]thiazol-6-amine OR N-(5-((1R,2R)-2-(dimethylamino)cyclobutoxy)-7-(1-methyl-1H-pyrazol-4-yl)quinazolin-4-yl)benzo[d]thiazol-6-amine], for which the half-inhibitory concentration (IC50) on EGFR L858R is no more than 0.01 µM; at EGFR (d746-750), no more than 0.01 µM; in experiment [1] it was 0.0101 to 0.05 µM.

Consider `CN1C[C@H](Oc2cc(-c3cnn(C)c3)cc3ncnc(Nc4ccc5ncsc5c4)c23)[C@@H](F)C1` [Example 383, N-(5-(((3S,4S)-4-fluoro-1-methylpyrrolidin-3-yl)oxy)-7-(1-methyl-1H-pyrazol-4-yl)quinazolin-4-yl)benzo[d]thiazol-6-amine], for which the IC50 was no more than 0.01 µM at EGFR L858R, no more than 0.01 µM at EGFR (d746-750) and 0.0101 to 0.05 µM in experiment [1].

Consider `CN1CC[C@H](Oc2cc(-c3cnn(C)c3)cc3ncnc(Nc4ccc5ncsc5c4)c23)[C@@H](F)C1` (racemic) [Example 343, trans-N-(5-(((3S,4S)-3-fluoro-1-methylpiperidin-4-yl)oxy)-7-(1-methyl-1H-pyrazol-4-yl)quinazolin-4-yl)benzo[d]thiazol-6-amine], for which the IC50 (at EGFR L858R; at EGFR (d746-750); in experiment [1]) was no more than 0.01 µM in each case.

In the case of `Cn1cc(-c2cc(OC3CCCOC3)c3c(Nc4ccc5ncsc5c4)ncnc3c2)cn1` (single isomer, unassigned) [Example 7], the IC50 is no more than 0.01 µM at EGFR L858R, no more than 0.01 µM on EGFR (d746-750) and 0.0101 to 0.05 µM in experiment [1].

Turning to `Cn1cc(-c2cc(O[C@@H]3C[C@@H](O)[C@@H](O)C3)c3c(Nc4ccc5ncsc5c4)ncnc3c2)cn1` (single isomer, unassigned) [Example A22], the IC50 is no more than 0.01 µM at EGFR L858R, no more than 0.01 µM at EGFR (d746-750) and 0.0101 to 0.05 µM in experiment [1].

On to `C[C@@H](Oc1cc(-c2cnn(C)c2)cc2ncnc(Nc3ccc4ncsc4c3)c12)C(=O)N1CCOCC1` [Example 285, (R)-2-((4-(benzo[d]thiazol-6-ylamino)-7-(1-methyl-1H-pyrazol-4-yl)quinazolin-5-yl)oxy)-1-morpholinopropan-1-one], for which the IC50 (at EGFR L858R; on EGFR (d746-750); in experiment [1]) was no more than 0.01 µM throughout.

`CN1CC[C@H](O)[C@@H](Oc2cc(-c3cnn(C)c3)cc3ncnc(Nc4ccc5ncsc5c4)c23)C1` (single isomer, unassigned) [Example A34]: the IC50 was 0.0101 to 0.05 µM at EGFR L858R, no more than 0.01 µM on EGFR (d746-750) and greater than 0.0501 µM in experiment [1].

Turning to `Cc1ccnn1-c1cc(OC2CCOCC2)c2c(Nc3ccc4ncsc4c3)ncnc2c1` [Example 135, N-(7-(5-methyl-1H-pyrazol-1-yl)-5-((tetrahydro-2H-pyran-4-yl)oxy)quinazolin-4-yl)benzo[d]thiazol-6-amine], the IC50 at EGFR L858R was 0.0101 to 0.05 µM; at EGFR (d746-750), 0.0101 to 0.05 µM; in experiment [1], greater than 0.0501 µM.

Take `CO[C@@H]1CCNC[C@H]1Oc1cc(-c2cnn(C)c2)cc2ncnc(Nc3ccc4ncsc4c3)c12` (single isomer, unassigned) [Example A38]: the IC50 was 0.0101 to 0.05 µM at EGFR L858R, no more than 0.01 µM on EGFR (d746-750) and 0.0101 to 0.05 µM in experiment [1].

For `C[C@@H](Oc1cc(-c2cnn(C)c2)cc2ncnc(Nc3ccc4ncsc4c3F)c12)[C@@H]1CCCO1` [Example 112, 7-fluoro-N-(7-(1-methyl-1H-pyrazol-4-yl)-5-((R)-1-((S)-tetrahydrofuran-2-yl)ethoxy)quinazolin-4-yl)benzo[d]thiazol-6-amine], the IC50 (at EGFR L858R; at EGFR (d746-750); in experiment [1]) was no more than 0.01 µM throughout.

As for `C[C@H](Oc1cc(-c2cnn(C)c2)cc2ncnc(Nc3ccc4ncsc4c3)c12)C1CC1` [Example 66, (S)-N-(5-(1-cyclopropylethoxy)-7-(1-methyl-1H-pyrazol-4-yl)quinazolin-4-yl)benzo[d]thiazol-6-amine], the IC50 (on EGFR L858R; at EGFR (d746-750); in experiment [1]) was no more than 0.01 µM each time.

Turning to `C[C@H]([C@@H](C)Oc1cc(-c2cnn(C)c2)cc2ncnc(Nc3ccc4ncsc4c3)c12)N(C)C` (single isomer, unassigned) [Example 143], the IC50 (on EGFR L858R; at EGFR (d746-750); in experiment [1]) was no more than 0.01 µM throughout.
